Data taken from patent publication US8143397B2 (Medichem S.A., priority 2006, dated 2012).

Experiment: Tapped density
Type: physicochemical
Details: after milling, sieving and blending

SMILES	Tapped Density
C[C@@H](c1ncncc1F)[C@](O)(Cn1cncn1)c1ccc(F)cc1F [Example 24, Voriconazole]	0.82 g/mL

Experiment: Particle size distribution (Malvern laser particle size analyser)
Type: physicochemical
Details: dispersed in 0.1% Tween 20 in DI water, sonicated 2 minutes
Procedure: vii. Particle Size Distribution
Particle size measurement was obtained using a Malvern particle size analyser equipped with a 2 milliwatt Helium/Neon laser and a Fourier Transform lens system. The sample was run using the […]. The sample unit was a MS1-Small Volume Sample Dispersion Unit stirred cell. The dispersant was DI water. The sample particle size distribution was assumed to follow a normal distribution.
Analysis model: polydisperse.
Setup presentation: standard wet (30HD)
1 ml of Tween 20 was diluted to 1000 ml with water (solution 0.1% of Tween 20 in DI water). Approximately 250 mg of sample was dispersed in 20 ml of the solution 0.1% of Tween 20 in DI water. This sample was sonicated for 2 minutes and delivered dropwise to the previously filled and background corrected measuring cell until the desired obscuration was reached.
This dispersion (the dispersion in the stirring measuring cell) was measured after stabilization of the obscuration.

SMILES	Mean Diameter	Particle Size Distribution D(v, 0.1)	Particle Size Distribution D(v, 0.5)	Particle Size Distribution D(v, 0.9)
C[C@@H](c1ncncc1F)[C@](O)(Cn1cncn1)c1ccc(F)cc1F [Example 25, Voriconazole]	19.4 μm	5.4 μm	17.5 μm	37.2 μm
C[C@@H](c1ncncc1F)[C@](O)(Cn1cncn1)c1ccc(F)cc1F [Example 21, Voriconazole]	18.3 μm	5.3 μm	16.7 μm	34.1 μm
C[C@@H](c1ncncc1F)[C@](O)(Cn1cncn1)c1ccc(F)cc1F [Example 19, Voriconazole]	23.3 μm	5.7 μm	20.8 μm	43.4 μm
C[C@@H](c1ncncc1F)[C@](O)(Cn1cncn1)c1ccc(F)cc1F [Example 18, Voriconazole]	18.7 μm	4.5 μm	16.9 μm	37.4 μm
C[C@@H](c1ncncc1F)[C@](O)(Cn1cncn1)c1ccc(F)cc1F [Example 24, Voriconazole]		35.9 μm	147.6 μm	350.0 μm
C[C@@H](c1ncncc1F)[C@](O)(Cn1cncn1)c1ccc(F)cc1F [Example 20, Voriconazole]	17.5 μm	4.2 μm	14.9 μm	34.1 μm
C[C@@H](c1ncncc1F)[C@](O)(Cn1cncn1)c1ccc(F)cc1F [Example 2, Voriconazole]		36.9 μm	102.4 μm	220.0 μm
C[C@@H](c1ncncc1F)[C@](O)(Cn1cncn1)c1ccc(F)cc1F [Example 23, Voriconazole]	19.8 μm	5.2 μm	17.9 μm	37.5 μm
C[C@@H](c1ncncc1F)[C@](O)(Cn1cncn1)c1ccc(F)cc1F [Example 22, Voriconazole]	21.0 μm	5.2 μm	19.1 μm	39.1 μm
